Test results from patent US20230045112A1, “DISULFIRAM AND OTHER REDOX-RELATED COMPOSITIONS FOR BRAIN TUMORS” (Texas Tech University System, priority 2014, published 2023).
Where two headings read alike, the source gives them in different places.

Legend:
[1] = cited from earlier work
MGMT [2] = target: T1, MGMT (Homo sapiens, UniProt P16455); experiment: MGMT activity and protein in MGMT-proficient human cancer cell lines (HT29, T47D, HCT116); format: cell-based; design: endogenous in cells; host or cells: HT29, T47D, HCT116
T1 sequence (P16455 1-207): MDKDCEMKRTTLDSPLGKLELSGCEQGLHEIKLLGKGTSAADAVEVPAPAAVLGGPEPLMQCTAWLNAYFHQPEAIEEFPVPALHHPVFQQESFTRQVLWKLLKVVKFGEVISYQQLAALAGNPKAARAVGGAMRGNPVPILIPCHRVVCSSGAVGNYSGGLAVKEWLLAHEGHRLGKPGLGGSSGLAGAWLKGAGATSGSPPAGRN

MGMT [3] = target: T2, MGMT (Mus musculus, UniProt P26187); experiment: MGMT activity in mouse brain and liver after DSF administration; format: in vivo, mice; conditions: single dose 150 mg/kg i.p., 9-12 hours
T2 construct: from tissue; host or cells: mouse brain and liver
Description: Control mice received DMSO alone.
Error bars indicate SD. […] The overall findings of the present study are summarized.

[4] = target: T3, cellular MGMT (UW228 cell-free extracts) (Homo sapiens, UniProt P16455); experiment: MGMT DNA repair activity in UW228 cell-free extracts treated with DSF; format: biochemical; conditions: 25 μM DSF, 20 minutes
T3 construct: endogenous in cells; host or cells: UW228, T98G
Description: (§1) The DNA repair activity of MGMT was measured by the transfer of [3H]-labeled methyl groups from the O^6-position of guanine in the DNA substrate to the MGMT protein as described previously. The DNA substrate enriched in O6-methylguanine was prepared by reacting [3H]-methylnitrosourea (GE Healthcare, 60 Ci/mmol). Briefly, the cell pellets were washed with cold PBS, disrupted by sonication in the assay buffer (30 mM Tris-HCl pH 7.5, 0.5 mM DTT, 0.5 mM EDTA, 5% glycerol, and 20 μM spermidine) and centrifuged. The extracts (50-150 μg protein) were supplemented with the [3H]-DNA (10,000 cpm) and incubated at 37° C. The reactions were terminated by the addition of TCA, the DNA substrate was hydrolyzed at 80° C., and following filtration on glass fiber discs; the radioactivity present in protein precipitates was quantitated.
(§2) Cells were trypsinized, washed and MGMT activity was determined in cell extracts (top panel). The same extracts were western blotted for MGMT protein. WB, western blot. […] Cells were exposed to CuDSF and analyzed for MGMT activity and protein as above. […] To delineate the appropriate time for alkylating drug treatments following MGMT inhibition, next, the time course of MGMT depletion by these three interventions was studied.

UW228 cells = experiment: Soft agar colony formation assay; format: cell-based, human; conditions: 50 μM DSF then BCNU or TMZ
Description: (§3) These were performed using the yellow tetrazolium dye (3-(4, 5-dimethylthiazolyl-2)-2, 5-diphenyl tetrazolium bromide) (MTT) as described previously. […] The purple color developed due to formazan was measured at 570 nm using a […]luor Plus plate reader (Tecan Inc.). Cell proliferation was also assessed by colony formation assays on soft agar.
Cells were then cultured for 48 hours before performing the MTT assays. […] The effect of drugs on cell survival was computed at each concentration. The data represents the results of three independent experiments performed in triplicate.

Cys145 of MGMT = target: T4, Cys145 of MGMT (Homo sapiens, UniProt P16455); experiment: BG-PEG-biotin probe binding to MGMT
T4 construct: hexa-histidine; made in house; host or cells: E. coli
T4 sequence (P16455 1-207): T1 sequence (P16455 1-207)
Description: Drug treatments and exposure times are shown in labels. […] Cells were trypsinized at times shown. Levels of MGMT activity and protein were determined in cell extracts. […] BG-PEG-biotin (5 μM) was then added and incubations continued for 15 minutes. The samples were electrophoresed, blotted and probed with Streptavidin-HRP to detect the protein-bound biotin (upper panel). […] Streptavidin-HRP was used to probe the resulting blot (upper panel).
MGMT protein and activity levels were analyzed during the depletion and repletion (FIG. 3B). […] MGMT protein levels as determined by western analyses during the depletion/repletion cycle were consistent with and fully reflected the DNA repair activity profiles (FIG. 3B, left panel).

[5] = test system: U87 malignant glioma cells; experiment: MTT cell survival assay, MGMT-deficient cells; format: cell-based, human; conditions: DSF-pretreated U87 cells lacking MGMT expression
Description: as §3
Cells were then cultured for 48 hours before performing the MTT assays. […] The effect of drugs on cell survival was computed at each concentration. The data represents the results of three independent experiments performed in triplicate. Values are mean+S.D. The results presented in panels B, C and G (at 25-75 μM BCNU and 250-750 temozolomide) were significant at P<0.05. *, indicates statistically significant difference as compared to controls.

[6] = test system: wild-type and mutant p53, NF-κB, and ubiquitin E1; experiment: Degradation of redox-sensitive proteins by disulfiram; format: cell-based
MGMT [7] = target: T1, MGMT; experiment: MGMT activity and protein (western blot) in drug-treated T98G and UW228 brain tumor cells; format: cell-based; design: endogenous in cells; host or cells: UW228, T98G
Description: as §1
After trypsinization, the cell pellets were washed with cold PBS, and subjected to sonication in 50 mM Tris-HCl (pH 8.0) containing 1% glycerol, 1 mM EDTA, 0.5 mM PMSF and 2 mM benzamidine and centrifuged. Equal protein amounts from different treatments were electrophoresed on 12% SDS-polyacrylamide gels. Proteins were electro-transferred to Immobilon-P membranes. The membranes were blocked with 5% non-fat dry milk in Trisbuffered saline (TBS; pH 8.0) containing 0.1% Tween 20 for 3 hours, and subsequently incubated with appropriate primary antibodies. Antigen-antibody complexes were visualized by enhanced chemiluminiscence (Pierce Company). Band intensities were quantified using a Bio-Rad Versa Doc Imaging system.
as §2
At times indicated, MGMT activity and protein levels were assessed.
MGMT performs a stoichiometric reaction to accomplish the DNA repair and is not recycled to its active form. Instead, the inactivated protein is degraded and fresh translation has to occur to restore the MGMT levels in cells. The rate and extent of this recovery is an important factor in the extent of damage introduced to the normal cell genomes such as the bone marrow stem cells. […] MGMT protein and activity levels were analyzed during the depletion and repletion (FIG. 3B).

T2 sequence (P26187 whole entry): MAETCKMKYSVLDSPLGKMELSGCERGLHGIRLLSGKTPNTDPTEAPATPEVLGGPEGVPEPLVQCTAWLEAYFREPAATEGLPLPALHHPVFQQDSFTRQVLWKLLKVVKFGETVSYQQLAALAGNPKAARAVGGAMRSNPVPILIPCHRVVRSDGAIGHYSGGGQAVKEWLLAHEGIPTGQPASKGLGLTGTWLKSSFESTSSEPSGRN

## CCN(CC)C(=S)SSC(=S)N(CC)CC [DSF, 1,1′,1″,1′″-[disulfanediylbis(carbonothioylnitrilo)]tetraethane]
[1]
  partition coefficient Log P: 2.8
MGMT [2]; 200 μM, 12 hours
  degradation of MGMT: about 70%
MGMT [2]; HT29 and HCT116 cells, 400 μM, 20 hour
  inhibition at 400 µM: 95%
MGMT [3]
  decrease of MGMT repair activity in brain: 40%
[4]
  repair activity in the extracts curtailed: 75%
UW228 cells
  enhanced cytotoxicity of BCNU or TMZ, colony formation: 3 fold
Cys145 of MGMT; 50 μM DSF, 20 minutes at 37° C., wild type rMGMT
  binding of BG-PEG-biotin probe to purified rMGMT after drug: significant reduction in binding of the probe
Cys145 of MGMT; UW228 cell extracts, 20 minutes
  BG-PEG-biotin labeling of MGMT in cell extracts after drug: eliminated the western blot signal
[5]
  effect on cell killing by TMZ or BCNU: did not increase the extent of cell killing by TMZ or BCNU
[6]
  degradation of redox-sensitive proteins: degraded by disulfiram in a dose-dependent manner
MGMT [7]
  duration of inactivation of MGMT: > 30 h
  duration of suppression of MGMT activity in cell cultures: 24 to 36 h
MGMT [7]; 50 μM in culture medium, at 12 hours, maintained till 24 hours, read-out: maximal inhibition of MGMT activity and protein
  inhibition at 50 µM: 75%
MGMT [7]; UW228 cells, 50 μM, 12 hours, read-out: loss/inhibition of MGMT activity at 12 hours post-drug treatment
  inhibition at 50 µM: 75%
MGMT [7]; UW228 cells, 10 mM DTT
  reversibility of DSF modification of MGMT by DTT: largely irreversible
MGMT [7]; UW228 cells, 48 hours post-drug in drug-free media after 50 μM for 12 hours
  recovery of MGMT activity, % of control levels: ~95 % of control levels
MGMT [7]; read-out: inhibition of MGMT activity
  inhibition at 50 µM: ~70%
